Reference: patent US20120077831A1, “METHODS AND ASSAYS FOR THE TREATMENT OF IRRITABLE BOWEL SYNDROME” (priority 2009, published 2012)

Experiments:
[1] = system: patients suffering from IBS-D or IBS-A; experiment: phase 2a clinical trial in IBS patients: weekly global assessment and Bristol Stool Scale; assay type: in vivo, human
Procedure: (§1) A randomized, double-blind, placebo-controlled phase 2a clinical trial was conducted to assess the safety and efficacy of a TPH inhibitor, (S)-2-amino-3-(4-(2-amino-6-((R)-2,2,2-trifluoro-1-(3′-methoxybiphenyl-4-yl)ethoxy)pyrimidin-4-yl)phenyl)propanoic acid, in 155 patients suffering from IBS-D or IBS-A, based on Rome III criteria. Capsules containing the compound or placebo were orally administered. Two dose levels were tested: 250 mg QID and 1000 mg QID. A two-week run-in period was used to establish baseline symptoms, followed by a 28 day randomized, double-blind treatment period. There was then a two-week follow-up period.
(§2) During the study, patients' urine and blood were obtained to assess 5-HIAA and 5-HT levels. Methods used to assess clinical endpoints were: 1) global assessment by weekly questioning regarding adequate relief of IBS pain and discomfort; and 2) Bristol Stool Scale was used to assess stool consistency by daily automated telephonic IVRS contact.

5-HIAA and 5-HT levels = experiment: phase 2a clinical trial in IBS patients: blood 5-HT and 24 hour urinary 5-HIAA levels; assay type: in vivo, human; conditions: oral dosing
Procedure: as §1, §2

Q: For `COc1cccc(-c2ccc([C@@H](Oc3cc(-c4ccc(C[C@H](N)C(=O)O)cc4)nc(N)n3)C(F)(F)F)cc2)c1` [(S)-2-amino-3-(4-(2-amino-6-((R)-2,2,2-trifluoro-1-(3′-methoxybiphenyl-4-yl)ethoxy)pyrimidin-4-yl)phenyl)propanoic acid], which “improvement in global response in relation to baseline serotonin levels (5-HIAA in 24 hour urine prior to dosing)” value ([1]; IBS patients with comparatively high baseline levels versus those without) is on record?
A: The value was “greater beneficial effect in IBS patients who had comparatively high baseline levels”.

Q: And the “weekly global assessment (adequate relief of IBS pain and discomfort)” value ([1]; high dose arm (1000 mg QID, oral capsules) versus placebo, 28 day treatment period)?
A: The value was “statistically significant improvement versus placebo”.

Q: And the “stool consistency (Bristol Stool Scale)” value ([1]; high dose arm (1000 mg QID, oral capsules), 28 day treatment period)?
A: The value was “significant improvement”.

Q: What about the “24 hour urinary 5-HIAA levels” value (5-HIAA and 5-HT levels) of the same molecule?
A: The value was “significant reduction”.

Q: And the “blood 5-HT levels” value (5-HIAA and 5-HT levels)?
A: Its value is “reduction”.
